Patent US8501166B2, “Pyrimidinyl indole compounds” (Hutchison Medipharma Limited, priority 2010, dated 2013)
Structures can show the parent of a compound that is named as a salt.

Experiments:
[1] = test system: LPS-induced plasma TNFα production; test: LPS-induced plasma cytokine production in mouse, TNFα; type: in vivo, Balb/c mice
Protocol: Balb/c mice (female, body weight from 18 to 20 g) are used in these experiments. The dose dependency, time course study and pharmacokinetic/pharmacodynamic relationship of the test compound are conducted in mice treated with LPS (0.4 mg/kg).
Eight mice/group are administrated with 1 to 100 mg/kg of either the test compound (suspension in 10% acacia) or vehicle by oral gavage at 1 h prior to intraperitoneal injection of 0.4 mg/kg LPS. Ninety minutes after LPS administration, blood samples are collected in tubes containing heparin for anticoagulation. Plasma samples are diluted 3-fold with dilution buffer (R&D, Cat.No. Part 895206, Calibrator Diluent RD5Z). TNFα levels are measured using ELISA kit (R&D, Cat.No. MTA00) based on manufacture's protocol. Data is acquired using a SPECTRAMAX® M2e Plus Plate Reader and analyzed by standard curve fitting.
Alternately, the compound is screened for its ability to inhibit the LPS-induced cytokine production in rat plasma according to the method reported in the literature (Ziegelbauer K, Gantner F, Lukacs N W, et al. Br J. Pharmacol. 2005,145(2):178-92). Briefly, Lewis rats (male, body weight 140 g-180 g) are used in the experiments. Animals (8/group) are given 1 to 100 mg/kg of the testing compound (suspension in 35% solutol & 60% PEG400 & 5% PG) or vehicle by oral gavage at 1 h prior to intraperitoneal administration of LPS 0.4 mg/kg. Ninety minutes after the intraperitoneal administration of LPS, blood is collected in heparin anticoagulated tubes to measure TNFα using R&D System ELISA Kit based on the general Kit protocols. The plasma sample is diluted 100 fold with the dilution buffer and 50 μL of diluted sample is used in each measurement. The plate is read on a SPECTRAMAX® M2e Plus Plate Reader and TNFα levels are analyzed based on the standard curve. The drug levels in plasma are measured with LC-MS-MS. […] Alternately, the compound is screened for its ability to inhibit the LPS-induced cytokine production in mouse plasma. Balb/c mice (female, body weight 18-20 g) are used in the experiments. Mice (8/group) are administrated with 1 to 100 mg/kg of the test compound (suspension in 10% acacia) or vehicle by oral gavage at 1 h prior to introperitoneal (i.p.) administration of LPS (0.4 mg/kg). Ninety minutes after LPS administration, blood is collected with heparin anticoagulated tubes to measure TNFα levels (R&D, Cat.No. MTA00), IL-6 (R&D, Cat.No. M6000B) and IL-1β (R&D, Cat.No. MLB00B) based on the general kit protocols. Diluted or undiluted plasma samples of 50 μL are used for each measurement. […] The plate is read on a SPECTRMAX® M2e Plus Plate Reader and the data is analyzed using a standard curve.

[2] = test system: TNFα gene expression in U87MG xenograft; test: Inhibition of TNFα induced TNFα gene expression in U87MG xenograft; type: in vivo, Balb/c athymic nude mice
Protocol: TNFα stimulates IKKβ signaling and triggers TNFα gene expression. In order to confirm that a compound is targeting IKKβ in vivo, the compound is screened for its ability to inhibit TNFα induced TNFα gene expression in a U87MG (human glioblastoma cell line) xenograft. 3×10^6 U87MG tumor cells are implanted subcutaneously into the right lateral flank of female Balb/c athymic nude mice (6-8 weeks old). […] Nude mice are orally administered with the test compound at 2 h prior to tumor harvesting. TNFα (R&D, Cat: 210-TA) is intravenously injected at 1 h before tumor harvesting at 8 μg/kg.
Total RNA is extracted using the RNEASY® mini Kit (QIAGEN®, Cat: 74126). cDNA is synthesized using the High Capacity cDNA reverse transcription kit (ABI, Cat: 4368813). Quantitative real-time PCR is carried out in a 7500 real-time PCR system (Applied Biosystems) using the corresponding primers/probes for human GAPDH gene(ABI Hs99999905_ml) and human TNFα gene(ABI Hs00174128_ml) and ABgene Absolute QPCR ROX 2× master mix(AB-1139/B).
TNFα gene expression is normalized to β-actin gene expression. The gene counts are read from PCR machine Inhibition (%)=(Counts of Model—Counts of Treatment)/(Counts of Model-Counts of Control)×100%. Example 1 is specifically detailed in Table 3.

PLP-139-151 induced EAE = test: Mouse experimental autoimmune encephalomyelitis (EAE) model; type: in vivo, SJL/J mice
[3] = mouse, oral 1 h before LPS 0.4 mg/kg i.p.

Row | EC50 [1, 3] [µg/mL] | Compound | plasma TNFα level ([1]; 10 mg/kg oral 1 h before LPS 0.4 mg/kg, 90 min after LPS, baseline 2346.2 pg/mL) [pg/mL] | inhibition at 10 mg/kg ([1]; Mus musculus, 10 mg/kg oral 1 h before LPS 0.4 mg/kg, p<0.01) [%] | Inhibition Rate (%) of TNFα induced TNFα gene expression ([2]; 10 mg/kg oral, 2 h) [%] | Inhibition Rate (%) of TNFα induced TNFα gene expression ([2]; 30 mg/kg oral, 2 h) [%] | Inhibition Rate (%) of TNFα induced TNFα gene expression ([2]; 60 mg/kg oral, 2 h) [%] | Inhibition Rate (%) of TNFα induced TNFα gene expression ([2]; 100 mg/kg oral, 2 h) [%] | ED50 [1, 3] [mg/kg] | body weight loss (PLP-139-151 induced EAE; 10 and 30 mg/kg) | ED50 (PLP-139-151 induced EAE; Mus musculus, 3, 10, and 30 mg/kg oral twice daily, read-out: ED50, EAE clinical score) [mg/kg] | Inhibition Rate (%) of TNFα induced TNFα gene expression ([2]; Table 4, 3 mg/kg oral) [%] | Inhibition Rate (%) of TNFα induced TNFα gene expression ([2]; Table 4, 10 mg/kg oral) [%] | Inhibition Rate (%) of TNFα induced TNFα gene expression ([2]; Table 4, 30 mg/kg oral) [%] | Inhibition Rate (%) of TNFα induced TNFα gene expression ([2]; Table 4, 60 mg/kg oral) [%]
1 | – | O=C(NC1CC1)c1cccc2[nH]c(-c3nc(N[C@@H]4CCC[C@@H]4O)ncc3Cl)cc12 [Example 1, 2-{5-Chloro-2-[(1R,2S)-2-hydroxycyclopentylamino]pyrimidin-4-yl}-N-cyclopropyl-1H-indole-4-carboxamide hydrochloride] | 1474.9 | 37.1 | 49.1 | 68.5 | 86.2 | 94.9 | – | – | – | – | – | – | –
2 | ~2.42 | Cl.O=C(NC1CC1)c1cccc2[nH]c(-c3nc(N[C@@H]4CCC[C@H]4O)ncc3Cl)cc12 [Example 2, 2-{5-Chloro-2-[(1R,2R)-2-hydroxycyclopentylamino]pyrimidin-4-yl}-N-cyclopropyl-1H-indole-4-carboxamide hydrochloride] | – | – | – | – | – | – | 4.84 | improves | 3.7 | 10.7 | 25.3 | 69.7 | 87.8
